Measurements as given in the supplement of paper PMC10307832.

What was measured:
Assay in all cases: relative viability (nuclei count vs DMSO), 5 days (fraction); higher = more cells survive
[1] = compound: COc1cc([C@@H]2c3cc4c(cc3[C@@H](O[C@@H]3O[C@@H]5CO[C@@H](C)O[C@H]5[C@H](O)[C@H]3O)[C@H]3COC(=O)[C@H]23)OCO4)cc(OC)c1O [Etoposide] + CCNC(=O)c1noc(-c2cc(C(C)C)c(O)cc2O)c1-c1ccc(CN2CCOCC2)cc1 [Luminespib] (partner 0.01 µM)
Summary of the method: (§1)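 Nuclei were stained with Hoechst during a one-step fixation (final 0.05% Triton X-100, 1% formaldehyde, 1 ug/ml Hoechst) carried out 5 days after dosing, then counted on 4× images. The cells, lung cancer lines in 1536-well plates, had been dosed by pin tool the day after seeding with one drug alone or a fixed anchor-drug dose plus five library-drug doses (not always all listed) in √10 steps. Relative viability is the nuclei count in treated wells divided by that in vehicle wells, and each value is the median of duplicate plates.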

[2] = compound: COc1cc([C@@H]2c3cc4c(cc3[C@@H](O[C@@H]3O[C@@H]5CO[C@@H](C)O[C@H]5[C@H](O)[C@H]3O)[C@H]3COC(=O)[C@H]23)OCO4)cc(OC)c1O [Etoposide] + Cc1nc(Nc2ncc(C(=O)Nc3c(C)cccc3Cl)s2)cc(N2CCN(CCO)CC2)n1 [Dasatinib] (partner 0.075 µM)
Summary of the method: as §1

[3] = compound: CC1=C(N=C(N=C1N)[C@H](CC(=O)N)NC[C@@H](C(=O)N)N)C(=O)N[C@@H]([C@H](C2=CN=CN2)OC3C(C(C(C(O3)CO)O)O)OC4C(C(C(C(O4)CO)O)OC(=O)N)O)C(=O)N[C@H](C)[C@H]([C@H](C)C(=O)N[C@@H]([C@@H](C)O)C(=O)NCCC5=NC(=CS5)C6=NC(=CS6)C(=O)NCCC[S+](C)C)O [Bleomycin] + Nc1ncn([C@H]2C[C@H](O)[C@@H](CO)O2)c(=O)n1 [Decitabine] (partner 2 µM); settings: main component drawn
Summary of the method: as §1

[4] = compound: CC1=C(N=C(N=C1N)[C@H](CC(=O)N)NC[C@@H](C(=O)N)N)C(=O)N[C@@H]([C@H](C2=CN=CN2)OC3C(C(C(C(O3)CO)O)O)OC4C(C(C(C(O4)CO)O)OC(=O)N)O)C(=O)N[C@H](C)[C@H]([C@H](C)C(=O)N[C@@H]([C@@H](C)O)C(=O)NCCC5=NC(=CS5)C6=NC(=CS6)C(=O)NCCC[S+](C)C)O [Bleomycin] + CC(C)C[C@H](NC(=O)[C@H](Cc1ccccc1)NC(=O)c1cnccn1)B(O)O [Bortezomib] (partner 0.002 µM); settings: main component drawn
Summary of the method: as §1

With NCI-H1395 the relative viability ([1]; first compound 0.01 µM) was 0.713, the relative viability ([1]; first compound 0.03162 µM) was 0.539 and the relative viability ([1]; first compound 0.1 µM) was 0.607. It also gave a relative viability ([1]; first compound 0.3162 µM) of 0.54, a relative viability ([1]; first compound 1 µM) of 0.415 and a relative viability ([2]; first compound 0.01 µM) of 0.422. It also gave a relative viability ([2]; first compound 0.03162 µM) of 0.414, a relative viability ([2]; first compound 0.1 µM) of 0.368 and a relative viability ([2]; first compound 0.3162 µM) of 0.406. For the same cell line, the relative viability ([2]; first compound 1 µM) was 0.438, the relative viability ([3]; first compound 0.01 µM) was 0.563 and the relative viability ([3]; first compound 0.03162 µM) was 0.593. It also gave a relative viability ([3]; first compound 0.1 µM) of 0.513, a relative viability ([3]; first compound 0.3162 µM) of 0.394 and a relative viability ([3]; first compound 1 µM) of 0.305.
With NCI-H1563 the relative viability ([4]; first compound 0.01 µM) was 0.755, the relative viability ([4]; first compound 0.03162 µM) was 0.767 and the relative viability ([4]; first compound 0.1 µM) was 0.689. For the same cell line, the relative viability ([4]; first compound 0.3162 µM) was 0.536, the relative viability ([4]; first compound 1 µM) was 0.531 and the relative viability ([1]; first compound 0.01 µM) was 0.502. The relative viability ([1]; first compound 0.03162 µM) was 0.463, the relative viability ([1]; first compound 0.1 µM) was 0.479 and the relative viability ([1]; first compound 0.3162 µM) was 0.408. For the same cell line, the relative viability ([1]; first compound 1 µM) was 0.396, the relative viability ([2]; first compound 0.01 µM) was 0.416 and the relative viability ([2]; first compound 0.03162 µM) was 0.514. The relative viability ([2]; first compound 0.1 µM) was 0.435, the relative viability ([2]; first compound 0.3162 µM) was 0.387 and the relative viability ([2]; first compound 1 µM) was 0.349.
Cell Line NCI-H1623 has a relative viability ([1]; first compound 0.01 µM) of 0.541, a relative viability ([1]; first compound 0.03162 µM) of 0.537 and a relative viability ([1]; first compound 0.1 µM) of 0.347. It also gave a relative viability ([1]; first compound 0.3162 µM) of 0.405, a relative viability ([1]; first compound 1 µM) of 0.28 and a relative viability ([2]; first compound 0.01 µM) of 0.68. The relative viability ([2]; first compound 0.03162 µM) was 0.592, the relative viability ([2]; first compound 0.1 µM) was 0.334 and the relative viability ([2]; first compound 0.3162 µM) was 0.267. It also gave a relative viability ([2]; first compound 1 µM) of 0.294.
Cell Line NCI-H1648 has a relative viability ([3]; first compound 0.01 µM) of 0.412, a relative viability ([3]; first compound 0.03162 µM) of 0.387 and a relative viability ([3]; first compound 0.1 µM) of 0.466. It also gave a relative viability ([3]; first compound 0.3162 µM) of 0.467 and a relative viability ([3]; first compound 1 µM) of 0.334.
NCI-H1703 showed a relative viability ([4]; first compound 0.01 µM) of 0.328, a relative viability ([4]; first compound 0.03162 µM) of 0.276 and a relative viability ([4]; first compound 0.1 µM) of 0.245. It also gave a relative viability ([4]; first compound 0.3162 µM) of 0.134 and a relative viability ([4]; first compound 1 µM) of 0.125.
With NCI-H1793 the relative viability ([1]; first compound 0.01 µM) was 0.203, the relative viability ([1]; first compound 0.03162 µM) was 0.184 and the relative viability ([1]; first compound 0.3162 µM) was 0.181. For the same cell line, the relative viability ([1]; first compound 1 µM) was 0.169, the relative viability ([2]; first compound 0.01 µM) was 0.402 and the relative viability ([2]; first compound 0.03162 µM) was 0.348. For the same cell line, the relative viability ([2]; first compound 0.3162 µM) was 0.419, the relative viability ([2]; first compound 1 µM) was 0.214 and the relative viability ([3]; first compound 0.01 µM) was 0.483. It also gave a relative viability ([3]; first compound 0.03162 µM) of 0.472, a relative viability ([3]; first compound 0.1 µM) of 0.37 and a relative viability ([3]; first compound 0.3162 µM) of 0.175. It also gave a relative viability ([3]; first compound 1 µM) of 0.246.
With NCI-H1944 the relative viability ([1]; first compound 0.01 µM) was 0.519, the relative viability ([1]; first compound 0.03162 µM) was 0.936 and the relative viability ([1]; first compound 0.1 µM) was 0.597. The relative viability ([1]; first compound 0.3162 µM) was 0.404, the relative viability ([1]; first compound 1 µM) was 0.247 and the relative viability ([2]; first compound 0.01 µM) was 0.213. The relative viability ([2]; first compound 0.03162 µM) was 0.23, the relative viability ([2]; first compound 0.1 µM) was 0.159 and the relative viability ([2]; first compound 0.3162 µM) was 0.189. The relative viability ([2]; first compound 1 µM) was 0.102, the relative viability ([3]; first compound 0.01 µM) was 0.365 and the relative viability ([3]; first compound 0.03162 µM) was 0.321. For the same cell line, the relative viability ([3]; first compound 0.1 µM) was 0.275, the relative viability ([3]; first compound 0.3162 µM) was 0.252 and the relative viability ([3]; first compound 1 µM) was 0.159.
NCI-H2170 showed a relative viability ([1]; first compound 0.01 µM) of 0.714, a relative viability ([1]; first compound 0.03162 µM) of 0.874 and a relative viability ([1]; first compound 0.1 µM) of 0.273. The relative viability ([1]; first compound 0.3162 µM) was 0.585, the relative viability ([1]; first compound 1 µM) was 0.452 and the relative viability ([2]; first compound 0.01 µM) was 0.678. For the same cell line, the relative viability ([2]; first compound 0.03162 µM) was 0.658, the relative viability ([2]; first compound 0.1 µM) was 0.353 and the relative viability ([2]; first compound 0.3162 µM) was 0.619. For the same cell line, the relative viability ([2]; first compound 1 µM) was 0.401, the relative viability ([3]; first compound 0.01 µM) was 0.437 and the relative viability ([3]; first compound 0.03162 µM) was 0.42. It also gave a relative viability ([3]; first compound 0.1 µM) of 0.39, a relative viability ([3]; first compound 0.3162 µM) of 0.32 and a relative viability ([3]; first compound 1 µM) of 0.271.
Cell Line NCI-H2228 has a relative viability ([4]; first compound 0.01 µM) of 1.14, a relative viability ([4]; first compound 0.03162 µM) of 1.02 and a relative viability ([4]; first compound 0.1 µM) of 0.721. For the same cell line, the relative viability ([4]; first compound 0.3162 µM) was 0.558, the relative viability ([4]; first compound 1 µM) was 0.293 and the relative viability ([1]; first compound 0.01 µM) was 0.159. For the same cell line, the relative viability ([1]; first compound 0.03162 µM) was 0.141, the relative viability ([1]; first compound 0.1 µM) was 0.154 and the relative viability ([1]; first compound 0.3162 µM) was 0.117. It also gave a relative viability ([1]; first compound 1 µM) of 0.147, a relative viability ([2]; first compound 0.01 µM) of 0.61 and a relative viability ([2]; first compound 0.03162 µM) of 0.473. For the same cell line, the relative viability ([2]; first compound 0.1 µM) was 0.306, the relative viability ([2]; first compound 0.3162 µM) was 0.418 and the relative viability ([2]; first compound 1 µM) was 0.131.
Cell Line NCI-H2342 has a relative viability ([1]; first compound 0.01 µM) of 0.622, a relative viability ([1]; first compound 0.03162 µM) of 0.728 and a relative viability ([1]; first compound 0.1 µM) of 0.425. For the same cell line, the relative viability ([1]; first compound 0.3162 µM) was 0.352, the relative viability ([1]; first compound 1 µM) was 0.29 and the relative viability ([2]; first compound 0.01 µM) was 0.317. It also gave a relative viability ([2]; first compound 0.03162 µM) of 0.315, a relative viability ([2]; first compound 0.1 µM) of 0.3 and a relative viability ([2]; first compound 0.3162 µM) of 0.229. The relative viability ([2]; first compound 1 µM) was 0.254, the relative viability ([3]; first compound 0.01 µM) was 0.692 and the relative viability ([3]; first compound 0.03162 µM) was 0.624. The relative viability ([3]; first compound 0.1 µM) was 0.619, the relative viability ([3]; first compound 0.3162 µM) was 0.547 and the relative viability ([3]; first compound 1 µM) was 0.556.
Cell Line SK-MES-1 has a relative viability ([1]; first compound 0.01 µM) of 0.695, a relative viability ([1]; first compound 0.03162 µM) of 0.64 and a relative viability ([1]; first compound 0.1 µM) of 0.733. The relative viability ([1]; first compound 0.3162 µM) was 0.357, the relative viability ([1]; first compound 1 µM) was 0.231 and the relative viability ([2]; first compound 0.01 µM) was 0.315. It also gave a relative viability ([2]; first compound 0.03162 µM) of 0.388, a relative viability ([2]; first compound 0.1 µM) of 0.429 and a relative viability ([2]; first compound 0.3162 µM) of 0.286. For the same cell line, the relative viability ([2]; first compound 1 µM) was 0.131, the relative viability ([3]; first compound 0.01 µM) was 0.321 and the relative viability ([3]; first compound 0.03162 µM) was 0.356. For the same cell line, the relative viability ([3]; first compound 0.1 µM) was 0.305, the relative viability ([3]; first compound 0.3162 µM) was 0.177 and the relative viability ([3]; first compound 1 µM) was 0.164.
Work on SW 900 yielded a relative viability ([1]; first compound 0.01 µM) of 0.185, a relative viability ([1]; first compound 0.03162 µM) of 0.21 and a relative viability ([1]; first compound 0.1 µM) of 0.168. The relative viability ([1]; first compound 0.3162 µM) was 0.175, the relative viability ([1]; first compound 1 µM) was 0.153 and the relative viability ([2]; first compound 0.01 µM) was 0.62. The relative viability ([2]; first compound 0.03162 µM) was 0.659, the relative viability ([2]; first compound 0.1 µM) was 0.395 and the relative viability ([2]; first compound 0.3162 µM) was 0.591. The relative viability ([2]; first compound 1 µM) was 0.147, the relative viability ([3]; first compound 0.01 µM) was 0.377 and the relative viability ([3]; first compound 0.03162 µM) was 0.406. The relative viability ([3]; first compound 0.1 µM) was 0.334, the relative viability ([3]; first compound 0.3162 µM) was 0.234 and the relative viability ([3]; first compound 1 µM) was 0.244.
